# From ChEMBL document CHEMBL3227974, “Multivariate analysis and quantitative structure-activity relationships. Inhibition of dihydrofolate reductase and thymidylate synthetase by quinazolines” (J Med Chem, 1979)
# Target: T1, Dihydrofolate reductase (Mus musculus) (UniProt P00375)
# T1 sequence (whole entry): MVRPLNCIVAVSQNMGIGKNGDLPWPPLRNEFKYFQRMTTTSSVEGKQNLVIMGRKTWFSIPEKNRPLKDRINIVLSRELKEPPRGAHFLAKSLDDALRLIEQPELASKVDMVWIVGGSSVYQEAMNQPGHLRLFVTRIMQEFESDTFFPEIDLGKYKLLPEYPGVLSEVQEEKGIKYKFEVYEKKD
# Assay: Inhibition of dihydrofolate reductase in mouse L1210R cells
# Assay type: cell-based
# Details: not given
row,Structure (SMILES),log(1/I50)
1,Nc1nc(N)c2cc(CNc3ccc(Cl)cc3)ccc2n1,8.3
2,Nc1nc(N)c2cc(CNc3ccc(C(=O)NC(CC(=O)O)CC(=O)O)cc3)ccc2n1,8.14
3,Cc1c(CNc2ccc(Cl)c(C(=O)NC(CCC(=O)O)C(=O)O)c2)ccc2nc(N)nc(N)c12 (configuration not stated),8.68
4,CN(Cc1ccc2nc(N)nc(N)c2c1)c1ccc(C(=O)NC(CC(=O)O)C(=O)O)cc1 (configuration not stated),8.66
5,Nc1nc(N)c2c(Cl)c(CNc3ccc(C(=O)NC(CCC(=O)O)C(=O)O)cc3)ccc2n1 (configuration not stated),9.05
6,Nc1nc(N)c2cc(CNc3ccc(Cl)c(C(=O)NC(CC(=O)O)C(=O)O)c3)ccc2n1 (configuration not stated),8.37
7,Nc1nc(N)c2cc(Oc3ccc(CNc4ccc(C(=O)NC(CC(=O)O)C(=O)O)cc4)cc3)ccc2n1 (configuration not stated),7.67
8,Nc1nc(N)c2cc(CNc3cc(C(=O)NC(CC(=O)O)C(=O)O)ccc3Cl)ccc2n1 (configuration not stated),8.54
9,Nc1nc(N)c2cc(CNc3ccc(C(=O)NC(C(=O)O)C(=O)O)cc3)ccc2n1,8.81
10,Nc1nc(N)c2cc(CN(N=O)c3ccc(Cl)c(Cl)c3)ccc2n1,8
11,Nc1nc(N)c2cc(CNc3ccc(Cl)c(C(=O)NC(CCC(=O)O)C(=O)O)c3)ccc2n1 (configuration not stated),8.03
12,Nc1nc(N)c2cc(CNc3ccc(Cl)c(Cl)c3)ccc2n1,8.05
13,Nc1nc(N)c2cc(NCc3ccc(C(=O)NC(CC(=O)O)C(=O)O)cc3)ccc2n1 (configuration not stated),7.36
14,Nc1nc(N)c2cc(CNc3cccc(Cl)c3)ccc2n1,8
15,Nc1nc(N)c2cc(CNc3cccc(Br)c3)ccc2n1,8.64
16,Cc1c(CNc2ccc(C(=O)NC(CC(=O)O)CC(=O)O)cc2)ccc2nc(N)nc(N)c12,9.15
17,Nc1nc(N)c2c(Cl)c(CNc3ccc(C(=O)NC(CC(=O)O)C(=O)O)cc3)ccc2n1 (configuration not stated),9.21
18,Nc1nc(N)c2c(Cl)c(CNc3ccc(Cl)c(Cl)c3)ccc2n1,8.7
19,Nc1nc(N)c2cc(CNc3ccc(C(=O)NC(CC(=O)O)C(=O)O)cc3)ccc2n1 (configuration not stated),8.76
20,CCOC(=O)c1ccc(CNc2ccc3nc(N)nc(N)c3c2C)cc1,8
21,Cc1c(CNc2cccc(Br)c2)ccc2nc(N)nc(N)c12,8.82
22,COc1cc(NCc2ccc3nc(N)nc(N)c3c2C)cc(OC)c1OC,8.92
23,NC(=O)CCC(NC(=O)c1ccc(NCc2ccc3nc(N)nc(N)c3c2)cc1)C(=O)O (configuration not stated),9.66
24,Nc1nc(N)c2cc(Oc3ccc(CNc4ccc(C(=O)NC(CCC(=O)O)C(=O)O)cc4)cc3)ccc2n1 (configuration not stated),7.71
25,Cc1c(CNc2ccc(C(=O)NC(CC(=O)O)C(=O)O)cc2)ccc2nc(N)nc(N)c12 (configuration not stated),8.87
26,Nc1nc(N)c2cc(CNc3ccc(C(=O)NC(CC(=O)O)C(=O)O)cc3Cl)ccc2n1 (configuration not stated),9.13

# Target: T2, Thymidylate synthase (Lactobacillus casei) (UniProt P00469)
# T2 sequence (whole entry): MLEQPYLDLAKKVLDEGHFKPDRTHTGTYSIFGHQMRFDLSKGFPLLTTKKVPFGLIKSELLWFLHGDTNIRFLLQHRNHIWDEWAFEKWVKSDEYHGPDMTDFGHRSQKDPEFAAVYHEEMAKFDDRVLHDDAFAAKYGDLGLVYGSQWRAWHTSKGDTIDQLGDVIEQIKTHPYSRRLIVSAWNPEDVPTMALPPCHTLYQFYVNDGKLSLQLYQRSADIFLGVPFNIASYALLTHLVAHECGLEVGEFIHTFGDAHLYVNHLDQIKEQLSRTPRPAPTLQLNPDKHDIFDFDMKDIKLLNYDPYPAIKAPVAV
# Assay: Inhibition of thymidylate synthetase in Lactobacillus casei
# Details: Lacticaseibacillus casei
row,Structure (SMILES),log(1/I50)
1,CCOC(=O)c1ccc(NCc2ccc3nc(N)nc(O)c3c2)cc1,4
2,Nc1nc(N)c2cc(NCc3ccc(C(=O)NC(CCC(=O)O)C(=O)O)cc3)ccc2n1 (configuration not stated),5.3
3,CCOC(=O)CCC(NC(=O)c1ccc(CNc2ccc3nc(N)nc(O)c3c2C)cc1)C(=O)OCC (configuration not stated),4
4,Nc1nc(=O)c2cc(NCc3ccc(C(=O)NC(CCC(=O)O)C(=O)O)cc3)ccc2[nH]1 (configuration not stated),5
5,Cc1c(NCc2ccc(C(=O)NC(CCC(=O)O)C(=O)O)cc2)ccc2nc(N)nc(O)c12 (configuration not stated),4.3
6,CCOC(=O)CCC(NC(=O)c1ccc(SCc2ccc3nc(N)nc(O)c3c2)cc1)C(=O)OCC (configuration not stated),5.1
7,CCOC(=O)c1ccc(CNc2ccc3nc(N)nc(O)c3c2)cc1,4.3
8,CN(Cc1ccc2nc(N)nc(O)c2c1)c1ccc(C(=O)NC(CCC(=O)O)C(=O)O)cc1 (configuration not stated),6.4
9,CCOC(=O)c1ccc(CNc2ccc3nc(N)nc(N)c3c2C)cc1,5
10,Nc1nc(=O)c2cc(CSc3ccc(C(=O)NC(CCC(=O)O)C(=O)O)cc3)ccc2[nH]1 (configuration not stated),5.6
11,CCOC(=O)CCC(NC(=O)c1ccc(NCc2ccc3nc(N)nc(N)c3c2C)cc1)C(=O)OCC (configuration not stated),4.3
12,Cc1c(CNc2ccc(C(=O)NC(CC(=O)O)C(=O)O)cc2)ccc2nc(N)nc(N)c12 (configuration not stated),5
13,Cc1c(NCc2ccc(C(=O)NC(CCC(=O)O)C(=O)O)cc2)ccc2nc(N)nc(N)c12 (configuration not stated),5.6

# Target: Thymidylate synthase (Mus musculus) (UniProt P07607)
# Assay: Inhibition of thymidylate synthetase in mouse L1210S cells
# Assay type: cell-based
# Details: not given
# Sequence of Thymidylate synthase (Mus musculus) (P07607 whole entry, looked up): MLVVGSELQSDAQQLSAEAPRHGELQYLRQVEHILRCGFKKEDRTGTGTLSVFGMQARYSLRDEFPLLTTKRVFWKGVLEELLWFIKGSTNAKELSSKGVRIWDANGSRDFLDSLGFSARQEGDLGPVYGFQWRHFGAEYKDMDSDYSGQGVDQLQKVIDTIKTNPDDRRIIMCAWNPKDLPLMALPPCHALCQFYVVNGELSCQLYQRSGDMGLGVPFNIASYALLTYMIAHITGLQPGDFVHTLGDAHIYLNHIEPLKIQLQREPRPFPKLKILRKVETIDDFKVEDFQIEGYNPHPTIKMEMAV
row,Structure (SMILES),log(1/I50)
1,CCOC(=O)c1ccc(NCc2ccc3nc(N)nc(O)c3c2)cc1,4
2,Nc1nc(N)c2cc(NCc3ccc(C(=O)NC(CCC(=O)O)C(=O)O)cc3)ccc2n1 (configuration not stated),6.6
3,CCOC(=O)CCC(NC(=O)c1ccc(CNc2ccc3nc(N)nc(O)c3c2C)cc1)C(=O)OCC (configuration not stated),5.12
4,Nc1nc(=O)c2cc(NCc3ccc(C(=O)NC(CCC(=O)O)C(=O)O)cc3)ccc2[nH]1 (configuration not stated),6.3
5,Cc1c(NCc2ccc(C(=O)NC(CCC(=O)O)C(=O)O)cc2)ccc2nc(N)nc(O)c12 (configuration not stated),5.12
6,CCOC(=O)CCC(NC(=O)c1ccc(SCc2ccc3nc(N)nc(O)c3c2)cc1)C(=O)OCC (configuration not stated),7
7,CCOC(=O)c1ccc(CNc2ccc3nc(N)nc(O)c3c2)cc1,4
8,CN(Cc1ccc2nc(N)nc(O)c2c1)c1ccc(C(=O)NC(CCC(=O)O)C(=O)O)cc1 (configuration not stated),7.3
9,CCOC(=O)c1ccc(CNc2ccc3nc(N)nc(N)c3c2C)cc1,4
10,Nc1nc(=O)c2cc(CSc3ccc(C(=O)NC(CCC(=O)O)C(=O)O)cc3)ccc2[nH]1 (configuration not stated),6
11,CCOC(=O)CCC(NC(=O)c1ccc(NCc2ccc3nc(N)nc(N)c3c2C)cc1)C(=O)OCC (configuration not stated),5.12
12,Cc1c(CNc2ccc(C(=O)NC(CC(=O)O)C(=O)O)cc2)ccc2nc(N)nc(N)c12 (configuration not stated),6
13,Cc1c(NCc2ccc(C(=O)NC(CCC(=O)O)C(=O)O)cc2)ccc2nc(N)nc(N)c12 (configuration not stated),6.6

# Target: T3, Dihydrofolate reductase (Homo sapiens) (UniProt P00374)
# T3 sequence (whole entry): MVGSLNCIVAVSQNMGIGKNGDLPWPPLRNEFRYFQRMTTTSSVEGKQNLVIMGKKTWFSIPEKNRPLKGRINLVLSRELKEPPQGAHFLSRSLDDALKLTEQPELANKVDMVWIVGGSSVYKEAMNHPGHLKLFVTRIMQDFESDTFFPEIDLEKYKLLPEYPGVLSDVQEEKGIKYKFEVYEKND
# Details: not given
row,Structure (SMILES),log(1/I50)
1,Nc1nc(N)c2cc(CNc3ccc(Cl)cc3)ccc2n1,8.22
2,Nc1nc(N)c2cc(CNc3ccc(C(=O)NC(CC(=O)O)CC(=O)O)cc3)ccc2n1,8.25
3,Cc1c(CNc2ccc(Cl)c(C(=O)NC(CCC(=O)O)C(=O)O)c2)ccc2nc(N)nc(N)c12 (configuration not stated),8.52
4,CN(Cc1ccc2nc(N)nc(N)c2c1)c1ccc(C(=O)NC(CC(=O)O)C(=O)O)cc1 (configuration not stated),8.69
5,Nc1nc(N)c2c(Cl)c(CNc3ccc(C(=O)NC(CCC(=O)O)C(=O)O)cc3)ccc2n1 (configuration not stated),9.11
6,Nc1nc(N)c2cc(CNc3ccc(Cl)c(C(=O)NC(CC(=O)O)C(=O)O)c3)ccc2n1 (configuration not stated),7.92
7,Nc1nc(N)c2cc(Oc3ccc(CNc4ccc(C(=O)NC(CC(=O)O)C(=O)O)cc4)cc3)ccc2n1 (configuration not stated),7.77
8,Nc1nc(N)c2cc(CNc3cc(C(=O)NC(CC(=O)O)C(=O)O)ccc3Cl)ccc2n1 (configuration not stated),8.52
9,CCOC(=O)c1ccc(NCc2ccc3nc(N)nc(O)c3c2)cc1,4.66
10,Nc1nc(N)c2cc(CNc3ccc(C(=O)NC(C(=O)O)C(=O)O)cc3)ccc2n1,9.1
11,Nc1nc(N)c2cc(CN(N=O)c3ccc(Cl)c(Cl)c3)ccc2n1,8
12,Nc1nc(N)c2cc(CNc3ccc(Cl)c(C(=O)NC(CCC(=O)O)C(=O)O)c3)ccc2n1 (configuration not stated),6.7
13,Nc1nc(N)c2cc(CNc3ccc(Cl)c(Cl)c3)ccc2n1,8.42
14,Nc1nc(N)c2cc(NCc3ccc(C(=O)NC(CCC(=O)O)C(=O)O)cc3)ccc2n1 (configuration not stated),8
15,CCOC(=O)CCC(NC(=O)c1ccc(CNc2ccc3nc(N)nc(O)c3c2C)cc1)C(=O)OCC (configuration not stated),5.1
16,Nc1nc(N)c2cc(CNc3cccc(Cl)c3)ccc2n1,8
17,Nc1nc(N)c2cc(CNc3cccc(Br)c3)ccc2n1,8.66
18,Nc1nc(=O)c2cc(NCc3ccc(C(=O)NC(CCC(=O)O)C(=O)O)cc3)ccc2[nH]1 (configuration not stated),5.78

row,Structure (SMILES),log(1/I50)
1,Cc1c(NCc2ccc(C(=O)NC(CCC(=O)O)C(=O)O)cc2)ccc2nc(N)nc(O)c12 (configuration not stated),6.12
2,CCOC(=O)CCC(NC(=O)c1ccc(SCc2ccc3nc(N)nc(O)c3c2)cc1)C(=O)OCC (configuration not stated),5.05
3,Cc1c(CNc2ccc(C(=O)NC(CC(=O)O)CC(=O)O)cc2)ccc2nc(N)nc(N)c12,8.17
4,Nc1nc(N)c2c(Cl)c(CNc3ccc(C(=O)NC(CC(=O)O)C(=O)O)cc3)ccc2n1 (configuration not stated),9.35
5,Nc1nc(N)c2c(Cl)c(CNc3ccc(Cl)c(Cl)c3)ccc2n1,8.96
6,CCOC(=O)c1ccc(CNc2ccc3nc(N)nc(O)c3c2)cc1,5.49
7,CN(Cc1ccc2nc(N)nc(O)c2c1)c1ccc(C(=O)NC(CCC(=O)O)C(=O)O)cc1 (configuration not stated),6.22
8,Nc1nc(N)c2cc(CNc3ccc(C(=O)NC(CC(=O)O)C(=O)O)cc3)ccc2n1 (configuration not stated),8.94
9,Cc1c(CNc2cccc(Br)c2)ccc2nc(N)nc(N)c12,8.82
10,COc1cc(NCc2ccc3nc(N)nc(N)c3c2C)cc(OC)c1OC,8.89
11,NC(=O)CCC(NC(=O)c1ccc(NCc2ccc3nc(N)nc(N)c3c2)cc1)C(=O)O (configuration not stated),10.1
12,Nc1nc(=O)c2cc(CSc3ccc(C(=O)NC(CCC(=O)O)C(=O)O)cc3)ccc2[nH]1 (configuration not stated),4.9
13,CCOC(=O)CCC(NC(=O)c1ccc(NCc2ccc3nc(N)nc(N)c3c2C)cc1)C(=O)OCC (configuration not stated),8.49
14,Nc1nc(N)c2cc(Oc3ccc(CNc4ccc(C(=O)NC(CCC(=O)O)C(=O)O)cc4)cc3)ccc2n1 (configuration not stated),7.8
15,Cc1c(CNc2ccc(C(=O)NC(CC(=O)O)C(=O)O)cc2)ccc2nc(N)nc(N)c12 (configuration not stated),8.9
16,Nc1nc(N)c2cc(CNc3ccc(C(=O)NC(CC(=O)O)C(=O)O)cc3Cl)ccc2n1 (configuration not stated),8.82
17,Cc1c(NCc2ccc(C(=O)NC(CCC(=O)O)C(=O)O)cc2)ccc2nc(N)nc(N)c12 (configuration not stated),9.07
